According to patent US20110105611A1, “USE OF MASLINIC ACID FOR THE TREATMENT OF P[…] THEIR SYMPTOMS THROUGH THE INHIBITION OF COX-2” (Biomaslinic S.L., priority 2008, published 2011):
“Also recorded” adds a separate entry of the source. Like-named read-outs stand apart in the source and are kept apart here.

What was measured:
T lymphocytes = assay: Activation and proliferation of T lymphocytes stimulated via TCR; type: cell-based
promoter of IL-6 = assay: IL-6 promoter luciferase assay in transfected SK-N-SH cells; type: cell-based, human; conditions: listed as MA
Excerpt: (§1) 2. Cell Cultures • Isolation and culture of primary monocytes of peripheral blood. Peripheral blood mononuclear cells (PBMC) coming from healthy adults volunteer donors were isolated by venous blood centrifugation through density gradient with Ficoll-Hypaque. The monocytes were separated through adherence to plastic and later cultured in 24-well plates at a density of 50,000 cells/ml for the enzyme immunoassay (EIA) experiments and in 6-well plates for the immunoblot assays. • Culture of human primary chondrocytes. Chondrocytes were bought from Promocell (Heidelberg, Germany) and cultured in medium conditioned for this type of cells. The cells were cultured in 24-well plates for the determination of PGE2 and IL-6. • Culture of rat primary astrocytes. The astrocyte primary cultures were prepared from neonatal rat brains (1 day old). […] The cultures were expanded in 6-well plates and the production of PGE2 measured in cells after the 3 or 4 pass. • Culture of cell lines. […]
(§2) SK—N—SH cells were transfected with the plasmids COX-2-Luc and IL-6-Luc using the JetPei reagent (Polyplus transfection, France) according to the manufacturer instructions. […] The luciferase activity in the protein extract was determined through the use of the luminometer Autolumat LB9510 (Berthold) following the system instructions of Luciferase assay from Promega (Madison, Wis., USA). […]

COX-2 [1] = assay: COX-2 enzymatic activity in LPS-induced monocytes (conversion of arachidonic acid to PGE2); type: cell-based, human; conditions: monocytes LPS 24 hours, MA 15 minutes, arachidonic acid 15 μM 15 minutes
Method: In order to determine COX-2 activity, the cells were LPS-stimulated first (10 ng/ml) for 24 hours to induce the cellular expression of the COX-2 protein. After that time the cultures were washed and a new free of serum culture medium, maslinic acid (different concentrations) and arachidonic acid (AA) were added for 15 minutes. During this time, the enzymatic activity of COX-2 was measured by its capacity to produce PGE2 from the AA included in the culture.
Vis-à-vis the possibility of MA acting as inhibitor of COX-2 activity, we induced the expression of COX-2 through the treatment of monocytes with LPS for 24 hours. After this time, the cells were washed three times with a medium without serum and incubated for 15 minutes with growing doses of MA. After this time, arachidonic acid was added to the cultures (15 μM) for other 15 minutes and the conversion to PGE2 was measured by EIA.

[2] = tested on: LPS-stimulated murine peritoneal macrophages; conditions: cited from earlier work
[3] = tested on: IL-6 production in human chondrocytes; assay: IL-6 production in primary human chondrocytes stimulated with IL-1; type: cell-based; conditions: IL-1 10 U/ml, concentration dependent
Excerpt: as §1, with “old). The upper part of the brain was opened and the meninges carefully separated to avoid contamination of the cultures with fibroblasts.” for “old).”
(§3) In order to determine if the effect of MA on the production of PGE2 also occurred in another cell type involved in inflammatory phenomena the anti-inflammatory activity of maslinic acid on primary human chondrocytes was determined. […]

[4] = tested on: IL-6 production in human monocytes; assay: IL-6 production in LPS-stimulated human monocytes (EIA); type: cell-based
Excerpt: as §1
(§4) Monocyte cultures were stimulated in the same way as for the production of PGE2 (LPS stimulation for 24 hours) and the amount of 8-iso-prostaglandine F2α (isoprostanes) or IL-6 released by the cells was determined respectively through the systems EIA from Cayman (USA) (catalogue number 516351) or from Pelikine (catalogue number RDI-M1916clb) following the manufacturer instructions.

[5] = tested on: TNFα production in primary monocytes; assay: TNFα production in primary monocytes; type: cell-based
[6] = tested on: PGE2 production in human chondrocytes; assay: PGE2 release in primary human chondrocytes stimulated with IL-1; type: cell-based; conditions: IL-1 10 U/ml; for release of PGE2 induced by IL-1, higher doses: MA 25 and 50 μg/ml
Excerpt: (§5) 2. Cell Cultures • Isolation and culture of primary monocytes of peripheral blood. Peripheral blood mononuclear cells (PBMC) coming from healthy adults volunteer donors were isolated by venous blood centrifugation through density gradient with Ficoll-Hypaque. The monocytes were separated through adherence to plastic and later cultured in 24-well plates at a density of 50,000 cells/ml for the enzyme immunoassay (EIA) experiments and in 6-well plates for the immunoblot assays. • Culture of human primary chondrocytes. Chondrocytes were bought from Promocell (Heidelberg, Germany) and cultured in medium conditioned for this type of cells. The cells were cultured in 24-well plates for the determination of PGE2 and IL-6. • Culture of rat primary astrocytes. The astrocyte primary cultures were prepared from neonatal rat brains (1 day old). The upper part of the brain was opened and the meninges carefully separated to avoid contamination of the cultures with fibroblasts. The cerebral cortex was isolated and a cellular suspension was obtained, which was cultured in DMEM conditioned for the astrocyte culture. The cultures were expanded in 6-well plates and the production of PGE2 measured in cells after the 3 or 4 pass. • Culture of cell lines. SK—N—SH (American Tissue Culture collection, HTB 11) is a cell line derived from a human neuroblastoma and an exponential growth in DMEM supplemented by 2 mmol/l L-glutamine, antibiotics and 10% FCS. The cells were cultured at 37° C. and in an atmosphere at 5% CO2.
(§6) Chondrocyte, monocyte and astrocyte cultures were stimulated with the corresponding activators (IL-1, LPS or PMA plus lonomicine) in presence or absence of several concentrations of maslinic acid during the indicated times. […] PGE2 was determined using the EIA system of Assay Designs (catalogue number 901-001) following the manufacturer instructions.
as §3

[7] = tested on: promoter of the COX-2 gene; assay: COX-2 promoter luciferase assay in transfected SK-N-SH cells; type: cell-based, human; conditions: PMA plus ionomycin 6 hours
Excerpt: as §1, §2

[8] = tested on: PGE2 production in SK-N-SH cells; assay: PGE2 production in SK-N-SH neuroblastoma cell line; type: cell-based, human
Excerpt: as §1, §6

[9] = tested on: mononuclear cells of human peripheral blood; conditions: cited from earlier work
tumor cell lines = assay: Apoptosis induction in tumor cell lines (concentration comparison); type: cell-based
[10] = tested on: 8-iso-PGF2α production in human monocytes; assay: Isoprostane (8-iso-PGF2α) release in LPS-stimulated human monocytes (EIA); type: cell-based; conditions: for release of 8-iso-PGF2α (isoprostanes): human monocytes of peripheral blood after LPS stimulation
Excerpt: as §5, §4
Isoprostanes such as endoperoxide 8-iso-prostaglandin F2α (8-iso-PGF2α) are metabolites of the oxidation of arachidonic acid and nowadays it is considered one of the best markers of oxidative stress. […]

[11] = tested on: PGE2 production in human monocytes; assay: PGE2 production in LPS-stimulated human monocytes of peripheral blood (EIA); type: cell-based; conditions: LPS-stimulated human monocytes from peripheral blood
Excerpt: as §1
as §6, with “instructions. […]” for “instructions.”

COX-2 [12] = assay: COX-2 protein expression in LPS-stimulated monocytes (western blot); type: cell-based, human; conditions: growing doses of MA, 12 hours, listed as MA
Excerpt: as §1, with “cells.” for “cells. The cells were cultured in 24-well plates for the determination of PGE2 and IL-6. • Culture of rat primary astrocytes. The astrocyte primary cultures were prepared from neonatal rat brains (1 day old).”
The cells (primary monocytes or SK—N—SH) were stimulated as indicated in each case and lysis solution in 50 μl (20 mM Hepes pH 8.0, 10 mM KCl, 0.15 mM EGTA, 0.15 mM EDTA, 0.5 mM Na3VO4, 5 mM NaF, 1 mM DTT, leupeptin 1 μg/ml, pepstatin 0.5 μg/ml, aprotinin 0.5 μg/ml, 1 mM PMSF y 0.5% NP-40). The protein concentration was determined through the Bradford reagent (Bio-Rad, Richmond, Calif., USA) and 30 μg of proteins were boiled in Laemmli solution and submitted to electrophoresis in gel of SDS/polyacrylamide at 10%. […]

[13] = tested on: PGE2 production in primary astrocytes; assay: PGE2 production in primary rat astrocytes; type: cell-based
Excerpt: as §1, §6

In the case of CC1(C)CC[C@]2(C(=O)O)CC[C@]3(C)C(=CC[C@@H]4[C@@]5(C)C[C@@H](O)[C@H](O)C(C)(C)[C@@H]5CC[C@]43C)[C@@H]2C1 [maslinic acid, 2-alpha,3-beta-dihydroxyolean-12-en-28-oic acid], the “activation and proliferation of T lymphocytes” value (T lymphocytes) is reported as “inhibits the activation and proliferation of T lymphocytes”, the “transcriptional activity of the IL-6 promoter (luciferase), IL-1 stimulation” value (promoter of IL-6; IL-1, 4 hours) is reported as “is not produced by a transcriptional inhibition of the gene of IL-6; also recorded: does not inhibit the transcriptional activity of the IL-1 promoter” and the “transcriptional activity of the IL-6 promoter (luciferase), PMA plus ionomycin stimulation” value (promoter of IL-6; PMA plus ionomycin, 4 hours) is reported as “is not produced by a transcriptional inhibition of the gene of IL-6; also recorded: does not inhibit the transcriptional activity of the IL-1 promoter”. The “enzymatic activity of COX-2 (conversion of arachidonic acid to PGE2, EIA)” value (COX-2 [1]) was “inhibits the enzymatic activity of COX-2”, the “enzymatic activity of COX-2 (conversion of arachidonic acid to PGE2, EIA)” value (COX-2 [1]; listed as MA) was “inhibited in a dose-depending manner the enzymatic activity of COX-2” and the “production of NO” value [2] was “inhibits”. The “production of hydrogen peroxide (ROS)” value [2] was “inhibits”, the “release of IL-6” value [2] was “inhibits” and the “release of TNFα” value [2] was “inhibits”. The “production of IL-6” value [3] was “inhibits the production of IL-6”, the “production of IL-6” value ([3]; listed as MA) was “completely inhibited” and the “IL-6 induced by LPS” value [4] was “inhibits the production”. The “IL-6 induced by LPS” value ([4]; listed as Maslinic acid) was “inhibits the production of IL-6”, the “production of TNFα” value [5] was “inhibits the production” and the “production of PGE2 after stimulation with IL-1, low doses” value ([6]; MA 0.1 and 1 μg/ml) was “an increase in the production of PGE2”. For the same compound, the “release of PGE2 induced by IL-1, higher doses” value [6] was “at high doses inhibits the production of PGE2”, the “release of PGE2 induced by IL-1, higher doses” value ([6]; listed as MA) was “a complete inhibition of the release of this prostaglandin” and the “transcriptional activity of the COX-2 gene (luciferase)” value [7] was “does not inhibit the transcriptional activation of the gene promoter of COX-2”. The “transcriptional activity of the COX-2 gene (luciferase)” value ([7]; listed as MA) was “did not affect the transcriptional activity of the COX-2 gene”, the “production of PGE2 in SK-N-SH cell line (neuroblastoma)” value ([8]; listed as Maslinic Acid) was “Dual Effect” and the “production of PGE2 in SK-N-SH cell line (neuroblastoma)” value ([8]; listed as Maslinic acid) was “at high doses inhibits the production of PGE2”. The “inhibition of IL-6, TNFα, NO and hydrogen peroxide” value [9] was “do not find”, the “concentrations inhibiting innate and acquired immune responses versus those required to induce apoptosis in tumor cell lines” value (tumor cell lines) was “noticeably lower” and the “release of 8-iso-PGF2α (isoprostanes)” value [10] was “inhibits the production of isoprostanes”. The “release of 8-iso-PGF2α (isoprostanes)” value ([10]; listed as MA) was “inhibits in a concentration depending way the release of 8-iso-PGF2α”, the “inhibiting power on the production of isoprostanes compared with reference antioxidants” value ([10]; primary monocytes, listed as MA) was “higher than that of tocopherol and trolox; also recorded: comparable to that of resveratrol” and the “production of PGE2” value [11] was “inhibits the production; also recorded: inhibited the production of PGE2”. The “production of PGE2” value ([11]; listed as Maslinic acid) was “inhibits the production of PGE2”, the “expression of COX-2 induced by LPS (western blot)” value (COX-2 [12]) was “did not inhibit the expression of COX-2” and the “production of PGE2 in primary astrocytes” value [13] was “Dual Effect”.
